Measured values from US20100028259A1, “USE OF ORGANIC CATION TRANSPORTERS FOR CANCER DIAGNOSIS AND THERAPY” (The Regents of the University of California, priority 2006, published 2010).
Read-outs that look alike come from different tables or passages of the source.

Assays:
DLD = assay: MTT drug sensitivity, colon cancer cell line DLD; format: cell-based, human
Method: Cytotoxicity of the platinum-based compounds was measured by MTT (thiazolyl blue tetrazolium bromide) assay. Cells were seeded in 100 μl of the culture medium without any antibiotics in 96-well plates at a predetermined cell density. For HEK 293 cells, poly-D-lysine coated plates were used. […] For the OCT inhibitor studies, the inhibitors (i.e., disopyramide or cimetidine) were added to the medium at a specified concentration immediately before the addition of the platinum-based compounds. After incubation for a specified time period, the drug-containing medium was replaced with fresh, drug-free medium and the incubation was continued for a total of 72 hours (start from the addition of platinum-based compounds). Then, the MTT assay was performed similarly as described in Alley et al., Cancer Res., 48:589-601 (1988). […] The maximal cell growth was the cell growth in the medium without any platinum-based compounds; C is the concentration of the platinum-based compound, and γ is the slope factor.
The cell seeding density was 6,000-, 8,000-, 6,000-, 15,000-12,000- and 4,000 cells/well for HCT116, HT29, RKO, SW620, LS180, and DLD cells, respectively. When cimetidine (1.5 mM) was used, it was added to the wells immediately before the addition of the platinum-based drugs. The resistance factor (RF) was defined as the ratio of the mean IC50 value in the presence to that in the absence of cimetidine. Data are expressed as mean±SD from six measurements, and each measurement was performed in quadruplicate.

HEK-hOCT2 cells = assay: Cellular accumulation of platinum in HEK-hOCT2 cells (ICP-MS); format: in vitro ADME, human; details: 2-hr exposure
Method: For the inhibitor studies, the incubation medium also contained disopyramide (150 μM). […] For the inhibitor studies, the incubation medium also contained cimetidine (1.5 mM). […] After drug exposure, the cells were washed with ice-cold PBS three times and harvested by scraping and centrifugation. The cell-associated platinum was determined by ICP-MS and normalized for protein content. Data are expressed as mean±SD from a single experiment performed in triplicate. Experiments were replicated for OCT1 and OCT2, and similar results were obtained.
The cellular accumulation of platinum was determined as described in Holzer et al., Mol. Pharmacol., 66:817-823 (2004) with some modifications. Briefly, the cells were grown in 100 mm×20 mm dishes in the culture medium without any antibiotics to over 90% confluence. For HEK 293 cells, poly-D-lysine coated dishes were used. For platinum accumulation, the cells were incubated in the culture medium containing the indicated concentrations of the platinum compounds at 37° C. in 5% CO2 for 2 hr unless specified. After incubation, the dishes were immediately placed on ice and the cells were washed with 6 ml of ice-cold PBS for three times and collected with a rubber policeman. The cell pellets were obtained by centrifugation at 400×g and at 4° C. for 15 min. For the OCT inhibitor studies, the incubation medium also contained the indicated inhibitor (i.e., disopyramide or cimetidine) in addition to the platinum-based compounds. The resulting cell pellets were then dissolved into 200 μl of 70% nitric acid at 65° C. for at least 2.5 hours, and then distilled water containing 10 ppb of iridium (Sigma) and 0.1% Triton X-100 was added to the samples to dilute nitric acid to 7%. The platinum content was measured by inductively plasma coupled mass spectrometry (ICP-MS) in the Analytical Facility at the University of California at Santa Cruz (Santa Cruz, Calif.). Cell lysates from a set of identical cultures were used for BCA protein assay.

HEK-MOCK cells = assay: MTT drug sensitivity assay in HEK-MOCK cells (control of HEK-hOCT2); format: cell-based, human
Method: Cytotoxicity of the platinum-based compounds was measured by MTT (thiazolyl blue tetrazolium bromide) assay. Cells were seeded in 100 μl of the culture medium without any antibiotics in 96-well plates at a predetermined cell density. For HEK 293 cells, poly-D-lysine coated plates were used. After overnight incubation, the platinum-based compounds were then added to the culture medium to give the indicated final concentrations. For the OCT inhibitor studies, the inhibitors (i.e., disopyramide or cimetidine) were added to the medium at a specified concentration immediately before the addition of the platinum-based compounds. After incubation for a specified time period, the drug-containing medium was replaced with fresh, drug-free medium and the incubation was continued for a total of 72 hours (start from the addition of platinum-based compounds). Then, the MTT assay was performed similarly as described in Alley et al., Cancer Res., 48:589-601 (1988). […] The maximal cell growth was the cell growth in the medium without any platinum-based compounds; C is the concentration of the platinum-based compound, and γ is the slope factor.
Briefly, the cells were seeded in 96-well plates at a density of 5,000 cells/well for the transfected MDCK cells or 12,000 cells/well for the transfected HEK 293 cells. The platinum-based drugs were added on the following day. After the specified time periods of drug exposure, the drug-containing medium was replaced with fresh, drug-free medium, and the incubation was continued for a total of 72 hours (start from the time when the drug was added). After incubation, the cell growth was determined by an MTT assay. Data are expressed as mean±SD from 3 to 6 independent experiments with each performed in quadruplicate. The resistance factor (RF) was defined as the ratio of the mean IC50 value in the MOCK cells to that in the OCT-transfected cells.

O=C1[O][Pt]2([NH][C@@H]3CCCC[C@H]3[NH]2)[O]C1=O [oxaliplatin]
IC50 (DLD; absence of cimetidine, read-out: IC50 Control): 10.6 ± 5.99 µM
IC50 (DLD; cimetidine 1.5 mM, read-out: IC50 Cimetidine-treated): 71.3 ± 12.9 µM
cellular platinum accumulation rate in HEK-hOCT2, cimetidine (HEK-hOCT2 cells; 0.3 μM, cimetidine 1.5 mM): 1.80±0.13 pmol/mg protein-hr
cellular platinum accumulation rate in HEK-hOCT2 (HEK-hOCT2 cells; drug 0.3 μM): 20.2±1.54 pmol/mg protein-hr
IC50 (HEK-MOCK cells; co-incubation with cimetidine 1.5 mM, read-out: IC50 in HEK-MOCK, cimetidine-treated): 9.5 ± 2.95 µM
IC50 (HEK-MOCK cells; drug exposure 7 hour, Table 2, read-out: IC50 HEK-MOCK): 2.99 ± 1.51 µM
IC50 (HEK-MOCK cells; drug exposure 24 hour, Table 2, read-out: IC50 HEK-MOCK): 1.5 ± 0.69 µM
IC50 (HEK-MOCK cells; drug exposure 72 hour, Table 2, read-out: IC50 HEK-MOCK): 0.93 ± 0.056 µM
